Here are results for 4 compounds from ChEMBL document CHEMBL4346714, “Multitarget PPARγ agonists as innovative modulators of the metabolic syndrome” (Eur J Med Chem, 2019).

In assay [1] the target is T1, Peroxisome proliferator-activated receptor gamma (Homo sapiens) (UniProt P37231).
T1 sequence (whole entry): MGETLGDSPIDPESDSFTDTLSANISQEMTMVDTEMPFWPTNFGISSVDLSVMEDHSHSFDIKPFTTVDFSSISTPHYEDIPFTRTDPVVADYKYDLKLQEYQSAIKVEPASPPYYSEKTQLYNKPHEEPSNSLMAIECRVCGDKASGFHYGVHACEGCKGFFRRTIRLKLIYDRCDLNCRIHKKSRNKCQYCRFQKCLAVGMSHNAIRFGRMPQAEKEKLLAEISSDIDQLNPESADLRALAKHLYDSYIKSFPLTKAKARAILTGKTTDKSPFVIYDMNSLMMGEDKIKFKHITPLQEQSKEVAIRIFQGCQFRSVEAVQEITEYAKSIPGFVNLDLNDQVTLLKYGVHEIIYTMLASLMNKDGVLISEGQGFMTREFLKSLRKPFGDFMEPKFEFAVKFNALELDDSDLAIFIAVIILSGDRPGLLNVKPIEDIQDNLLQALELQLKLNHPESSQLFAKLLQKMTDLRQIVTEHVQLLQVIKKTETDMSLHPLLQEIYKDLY
Description: Agonist activity at PPARgamma (unknown origin) at 10 uM by luciferase reporter gene assay relative to control. (Reporter assays use an easily measured gene product as a stand-in for the process of interest.)

Assay [2] has as its target T2, Hexokinase-4 (Homo sapiens) (UniProt P35557).
T2 sequence (whole entry): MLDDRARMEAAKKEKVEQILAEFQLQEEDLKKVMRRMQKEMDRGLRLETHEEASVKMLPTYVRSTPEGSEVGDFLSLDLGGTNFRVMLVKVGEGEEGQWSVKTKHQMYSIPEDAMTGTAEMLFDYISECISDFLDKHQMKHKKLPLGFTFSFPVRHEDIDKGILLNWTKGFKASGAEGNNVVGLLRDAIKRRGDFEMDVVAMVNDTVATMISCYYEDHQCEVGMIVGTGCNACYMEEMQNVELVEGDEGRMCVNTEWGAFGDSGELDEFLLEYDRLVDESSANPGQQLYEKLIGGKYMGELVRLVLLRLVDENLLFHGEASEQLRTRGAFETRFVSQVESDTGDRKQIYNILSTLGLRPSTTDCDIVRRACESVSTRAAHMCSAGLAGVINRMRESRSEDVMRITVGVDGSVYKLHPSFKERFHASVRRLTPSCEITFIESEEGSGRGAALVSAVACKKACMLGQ
Description: Activation of glucokinase (unknown origin) at 10 uM relative to control.

Assay [3] has as its target T1, Peroxisome proliferator-activated receptor gamma (Homo sapiens). Description: Transactivation of PPARgamma (unknown origin) expressed in HEK293 cells at 10 uM after 24 to 48 hrs by luciferase reporter gene assay relative to control. In kind it is cell-based.
Assay [4] concerns the target T2, Hexokinase-4 (Homo sapiens). Description: Activation of recombinant human glucokinase assessed as conversion of D-glucose to D-glucose-6-phosphate dehydrate at 10 uM by G6PDH/NADP coupled assay relative to control.

For `CC(C)OC(=O)c1ccc(NC(=O)Cc2ccc(/C=C3\SC(=O)NC3=O)cc2[N+](=O)[O-])nc1`, the Efficacy in assay [1] worked out at 48%. The compound further gave a fold change (FC) in assay [2] of 2.9.

`CCCOc1ccc(OCc2cccc(F)c2)cc1C(=O)Nc1ccc(C(=O)O)cn1`: in assay [3], the Efficacy amounted to 52.7%. Further, the fold change (FC) in assay [4] came to 1.7.

`O=C(Cc1ccc(/C=C2\SC(=O)NC2=O)cc1[N+](=O)[O-])Nc1ccccn1` came in with an Efficacy in assay [1] of 47.1%. This compound gave a fold change (FC) in assay [2] of 2.9.

As to `CCOC(=O)c1ccc(NC(=O)Cc2ccc(/C=C3\SC(=O)NC3=O)cc2[N+](=O)[O-])nc1`, in assay [1], the Efficacy came to 47.4%. In assay [2], this compound gave a fold change (FC) of 2.7.
